Patent US20080253972A1, “Aqueous/alcoholic deodorant composition comprising a water-soluble zinc salt and salicylic acid” (priority 2006, published 2008)

System: Corynebacterium xerosis
Test: Quantitative determination of bactericidal activity with regard to microorganisms involved in axillary odors
Type: cell-based
Conditions: 24 hours contact, carrier gel pH 7, Log reduction classes
Text: The test described here makes possible the quantitative determination of the bactericidal activity of an active principle (i.e.: zinc salicylate/salicylic acid or triclosan) conveyed in an appropriate carrier which is neutral with regard to the bacteria tested. The bacteria studied were microorganisms under optimum growth conditions, namely microorganisms of the Corynebacterium xerosis type (Institut Pasteur Collection No. 5216) cultured on a gradient of tryptocasein soybean agar.
The day before the test, 32 g of tryptocasein soybean broth was placed in a sample tube and incubated at 35° C. The day of the test, 4 g of the test composition was added and the mixture was homogenized using a Vortex render.
A growth control without product was also prepared under the same conditions in order to confirm that the microorganisms are under favorable growth conditions throughout the duration of the test. […]
The colonies on the dishes comprising more than 20 and less than 200 colonies were counted. […]
The following two carrier gels A and B were prepared (amounts expressed as percentages by weight): […]
The bactericidal activity of each of formulations 9 and 10 (see below) with regard to the Corynebacterium xerosis strain was measured and compared to a formulation devoid of active principle.

Oc1cc(Cl)ccc1Oc1ccc(Cl)cc1Cl [Triclosan, 2,4,4′-trichloro-2′-hydroxydiphenyl ether]
Effectiveness at 24 hours with respect to the gel devoid of active principle: Excellent
